# The source made the active and inactive calls.
# Tests used:
# CAAX prenyl protease 2 = target: T1, CAAX prenyl protease 2 (Saccharomyces cerevisiae S288c, UniProt Q03530); assay type: biochemical
# T1 sequence (Q03530 whole entry): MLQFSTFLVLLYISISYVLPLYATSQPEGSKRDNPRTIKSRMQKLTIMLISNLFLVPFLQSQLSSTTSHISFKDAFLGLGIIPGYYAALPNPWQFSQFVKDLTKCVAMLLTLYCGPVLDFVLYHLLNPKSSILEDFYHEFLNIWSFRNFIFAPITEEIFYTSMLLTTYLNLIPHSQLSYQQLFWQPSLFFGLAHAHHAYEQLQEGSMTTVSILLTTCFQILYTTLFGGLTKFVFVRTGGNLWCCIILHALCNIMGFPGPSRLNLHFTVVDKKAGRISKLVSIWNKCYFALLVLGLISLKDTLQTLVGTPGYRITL
# Vero = assay: cells; assay type: functional; settings: Chlorocebus sabaeus
# [1] = target: G-protein coupled receptor 55 (Homo sapiens, UniProt Q9Y2T6); assay: inhibition of LPI-stimulated GPR55 beta-arrestin translocation – imaging, U2OS, beta-arrestin-GFP, LPI agonist, primary screen (AID 2013); assay type: functional;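 also: antagonist potency measured as reduced agonist-driven arrestin aggregation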
# [2] = target: T2, Ubiquitin-conjugating enzyme E2 N (Homo sapiens, UniProt P61088); assay type: functional;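 also: Dose-response confirmation in a TR-FRET assay detecting UBC13-driven polyubiquitin chain formation, inhibition measured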
# T2 sequence (P61088 whole entry): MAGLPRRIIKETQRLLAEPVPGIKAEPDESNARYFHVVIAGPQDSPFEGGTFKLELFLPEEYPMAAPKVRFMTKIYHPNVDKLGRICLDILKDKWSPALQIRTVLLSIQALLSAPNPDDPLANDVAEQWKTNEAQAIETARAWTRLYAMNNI
# [3] = cAMP pathway inhibition in counterscreen cell line – TR-FRET cAMP detection, counter-screen for MC4R biased antagonist project, dose response (AID 602305); assay type: functional, cell-based;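 also: U2OS cells stimulated with forskolin near its EC80 as the cAMP inducer; potency is for inhibition of forskolin-stimulated cAMP signaling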
# Fatty acid synthase [4] = target: T3, Fatty acid synthase (Homo sapiens, UniProt P49327); assay: inhibition of human FAS-TE enzyme activity – biochemical, endpoint fluorescence intensity, uHTS hits, dose response (AID 624327); assay type: functional;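 also: fluorescence from hydrolysis of an O-methyl fluorescein acyl ester substrate by the enzyme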
# Melanocortin receptor 4 = Melanocortin receptor 4 (Homo sapiens, UniProt P32245); assay: inhibitors of MC4R cAMP signaling – cell-based, TR-FRET, biased antagonists, dose response (AID 602298); assay type: functional;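 also: antagonist potency against agonist-stimulated cAMP production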
# Fatty acid synthase [5] = target: T3, Fatty acid synthase; assay: inhibition of human FAS-TE enzyme activity – biochemical, kinetic fluorescence intensity, dose response (AID 624326); assay type: functional;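 also: rate of fluorescence rise from hydrolysis of a fluorogenic O-methyl fluorescein ester substrate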
# [6] = Luminescence-based counterscreen assay for KLF5 inhibitors: dose response cell-based high throughput screening assay to identify cytotoxic compounds using the IEC-6 intestinal epithelial cell line. [Related pubchem assays: 1700 (Primary screen.), 1834 (Confirmation screen.), 1858 (Summary AID.), 1905 (Counterscreen.)]; assay type: functional
# Estrogen receptor beta = Estrogen receptor beta (Homo sapiens, UniProt Q92731); assay: blockers of SRC-3 recruitment to ERβ – biochemical, ELISA, streptavidin-HRP readout, orthogonal assay, confirmation (AID 1060)
# [7] = growth inhibition of yeast DHODH-expressing 3D7 parasites – SYBR Green, dry powder samples, dose response (AID 1159570); assay type: functional, cell-based;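 also: parasite growth measured after 72 hours of compound exposure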
# [8] = toxicity to human hepatoma HepG2 cells – cell-based, cherry-picked samples, cytotoxicity control, dose response (AID 1159577); assay type: functional
# [9] = growth inhibition of PfATP4-mutant resistant parasites – NITD609-resistant line, SYBR Green, dry powder, dose response (AID 1159571); assay type: functional, cell-based;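 also: parasites synchronized at ring stage by sorbitol before testing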
# [10] = P. falciparum Dd2 growth inhibitors, dose response, SYBR Green, cherry-picked samples (AID 1159567); assay type: functional, cell-based
# [11] = Dd2 malaria parasite growth inhibition potency – SYBR Green, dry powder samples, dose response (AID 1159566); assay type: functional, cell-based;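 also: potency for growth inhibition with lower SYBR green DNA signal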
# [12] = microbe, parasite or virus in culture; assay type: functional; settings: Mycobacterium tuberculosis
# Streptococcus = assay: GAS UMAA2166 growth inhibition – luminescence, BacTiterGlo, counter-screen for streptokinase expression inhibitor project, dose response (AID 1915); assay type: functional, organism-based;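 also: potency for reduction of bacterial viability or growth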
# [13] = viability of uninfected HEp-2 cells – cell-based, HTS, cytotoxicity control for RSV inhibitor project, dose response (AID 2410); assay type: functional; settings: human respiratory syncytial virus
# [14] = tested on: Streptococcus sp. 'group A'; assay: Streptococcus pyogenes SK(-)GAS viability under kanamycin – luminescence, BacTiterGlo, confirmation, counter-screen for streptokinase expression inhibitor project, dose response (AID 1900); assay type: functional, organism-based
# Streptokinase A = target: T4, Streptokinase A (Streptococcus pyogenes serotype M1, UniProt P10520); assay: viability-normalized secreted streptokinase activity reduction – plasminogen activation absorbance, OD405, dose response (AID 1914); assay type: functional, Streptococcus pyogenes M1 GAS;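 also: secreted streptokinase activity via plasminogen activation per viability signal from cell pellet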
# T4 sequence (P10520 whole entry): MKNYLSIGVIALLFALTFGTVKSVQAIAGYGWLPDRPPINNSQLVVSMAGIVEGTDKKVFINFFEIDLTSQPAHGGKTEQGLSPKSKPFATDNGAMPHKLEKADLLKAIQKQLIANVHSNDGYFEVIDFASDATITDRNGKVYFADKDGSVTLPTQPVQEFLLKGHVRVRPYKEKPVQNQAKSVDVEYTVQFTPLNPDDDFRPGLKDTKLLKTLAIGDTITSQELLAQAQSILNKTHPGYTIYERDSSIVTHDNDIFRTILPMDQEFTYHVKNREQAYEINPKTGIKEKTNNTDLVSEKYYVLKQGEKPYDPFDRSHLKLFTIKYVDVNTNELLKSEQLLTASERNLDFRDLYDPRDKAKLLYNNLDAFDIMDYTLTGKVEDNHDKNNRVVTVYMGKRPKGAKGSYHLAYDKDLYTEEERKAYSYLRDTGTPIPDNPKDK
# [15] = Trypanosoma cruzi growth suppression in host cells – NIH3T3 host cells, beta-gal luminescence, confirmation (AID 2044); assay type: functional, cell-based;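 also: intracellular parasites grown in NIH/3T3 mouse fibroblasts as host cells; luminescent beta-galactosidase reporter signal from transgenic T. cruzi replicating inside host cells; inhibitors lower the luminescence signal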
# [16] = NIH3T3 cell viability loss – ATP luminescence, mouse fibroblasts, counter-screen, dose response (AID 2010); assay type: functional, cell-based;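 also: cells exposed to compound for about 90 hours before reading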
# Nonstructural protein 1 = Nonstructural protein 1 (Influenza A virus, UniProt Q194T2); assay type: functional, Influenza A virus (A/California/07/2009(H1N1))
# cells [17] = assay type: functional, cell-based
# cells [18] = assay type: functional, cell-based; remark: listed apart in the source
# [19] = Luminescence Cell-Based Dose Response to Identify Activators of 5'UTR Stem-Loop Driven Prion Protein mRNA Translation in H4-C Neuroglioblastoma Cells. [Related pubchem assays: 1829 (Project Summary), 1814 (Primary HTS)]; assay type: functional
# [20] = Luminescence Cell-Based Dose Response to Identify Activators of Luciferase Translation or Activity in H4-C Neuroglioblastoma Cells. [Related pubchem assays: 1829 (Project Summary), 1814 (Primary HTS)]; assay type: functional
# [21] = Luminescence Cell-Based Dose Confirmation to Identify Activators of 5'UTR Stem-Loop Driven Alpha-Synuclein mRNA Translation in H4 Neuroglioblastoma Cells. [Related pubchem assays: 1829 (Project Summary), 1814 (Primary HTS)]; assay type: functional
# [22] = Luminescence Cell-Based Dose Response HTS to Identify Activators of Luciferase Translation or Activity in H4 […] Cells. [Related pubchem assays: 1829 (Project Summary), 1814 (Primary HTS)]; assay type: functional
# [23] = target: T5, RNA-binding protein pos-1 (Caenorhabditis elegans, UniProt G5EF15); assay: disruptors of C. elegans POS-1 RNA interaction – biochemical, fluorescence polarization, dose response (AID 1964);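 also: purified POS-1 fused to maltose binding protein made in E. coli; potency of compounds blocking POS-1 binding to fluorescent RNA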
# T5 sequence (G5EF15 whole entry): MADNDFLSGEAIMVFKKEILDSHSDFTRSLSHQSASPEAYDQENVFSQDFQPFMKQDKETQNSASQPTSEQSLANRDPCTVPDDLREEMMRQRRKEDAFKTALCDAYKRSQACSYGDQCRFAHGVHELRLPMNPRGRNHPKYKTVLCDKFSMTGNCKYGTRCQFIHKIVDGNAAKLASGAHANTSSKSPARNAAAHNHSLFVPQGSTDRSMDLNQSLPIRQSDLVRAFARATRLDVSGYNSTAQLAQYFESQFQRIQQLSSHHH
# [24] = target: T6, Zinc finger protein mex-5 (Caenorhabditis elegans, UniProt Q9XUB2); assay: potency of MEX-5 RNA-binding blockers – biochemical, C. elegans, fluorescence polarization, dose response (AID 1960)
# T6 sequence (Q9XUB2 whole entry): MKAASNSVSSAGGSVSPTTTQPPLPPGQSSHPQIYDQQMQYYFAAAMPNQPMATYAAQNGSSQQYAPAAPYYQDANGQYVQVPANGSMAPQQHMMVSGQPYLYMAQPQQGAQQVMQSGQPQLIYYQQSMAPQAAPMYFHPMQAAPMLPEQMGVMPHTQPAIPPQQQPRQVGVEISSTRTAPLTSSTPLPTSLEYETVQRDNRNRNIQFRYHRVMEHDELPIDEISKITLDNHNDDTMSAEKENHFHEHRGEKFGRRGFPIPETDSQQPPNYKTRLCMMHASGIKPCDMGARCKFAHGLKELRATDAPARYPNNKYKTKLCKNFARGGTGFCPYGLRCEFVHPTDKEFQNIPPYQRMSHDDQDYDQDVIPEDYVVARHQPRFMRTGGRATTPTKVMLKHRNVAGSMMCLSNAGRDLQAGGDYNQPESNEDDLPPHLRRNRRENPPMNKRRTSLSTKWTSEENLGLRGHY
# H4 = assay: Luminescence Cell-Based Dose Response HTS to Identify Activators of 5'UTR Stem-Loop Driven Prion Protein mRNA Translation in H4 Neuroglioblastoma Cells. [Related pubchem assays: 1829 (Project Summary), 1814 (Primary HTS)]; assay type: functional; settings: Homo sapiens
# [25] = Luminescence Cell-Based Dose Confirmation HTS to Identify Activators of 5'UTR Stem-Loop Driven Alpha-Synuclein mRNA Translation in H4 Neuroglioblastoma Cells. [Related pubchem assays: 1829 (Project Summary), 1814 (Primary HTS)]; assay type: functional
# G-protein coupled receptor 55, sequence (Q9Y2T6 whole entry): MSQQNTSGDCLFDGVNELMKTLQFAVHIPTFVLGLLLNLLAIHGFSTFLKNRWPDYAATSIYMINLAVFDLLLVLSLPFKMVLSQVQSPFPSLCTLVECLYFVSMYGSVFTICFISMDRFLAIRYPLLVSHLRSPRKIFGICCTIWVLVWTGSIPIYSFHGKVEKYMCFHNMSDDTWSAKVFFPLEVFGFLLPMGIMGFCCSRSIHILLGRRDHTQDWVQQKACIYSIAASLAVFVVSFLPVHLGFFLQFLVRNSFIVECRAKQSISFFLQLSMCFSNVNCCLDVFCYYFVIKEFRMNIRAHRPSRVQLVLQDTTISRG
# Melanocortin receptor 4, sequence (P32245 whole entry): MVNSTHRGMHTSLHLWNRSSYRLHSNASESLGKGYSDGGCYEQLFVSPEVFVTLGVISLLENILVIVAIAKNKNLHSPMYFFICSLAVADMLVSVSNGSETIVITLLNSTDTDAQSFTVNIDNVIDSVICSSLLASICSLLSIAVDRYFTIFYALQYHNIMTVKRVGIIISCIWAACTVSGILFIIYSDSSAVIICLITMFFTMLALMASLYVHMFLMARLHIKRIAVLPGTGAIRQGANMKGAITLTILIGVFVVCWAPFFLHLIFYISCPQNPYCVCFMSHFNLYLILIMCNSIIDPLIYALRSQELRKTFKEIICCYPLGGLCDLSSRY
# T3 sequence (P49327 whole entry): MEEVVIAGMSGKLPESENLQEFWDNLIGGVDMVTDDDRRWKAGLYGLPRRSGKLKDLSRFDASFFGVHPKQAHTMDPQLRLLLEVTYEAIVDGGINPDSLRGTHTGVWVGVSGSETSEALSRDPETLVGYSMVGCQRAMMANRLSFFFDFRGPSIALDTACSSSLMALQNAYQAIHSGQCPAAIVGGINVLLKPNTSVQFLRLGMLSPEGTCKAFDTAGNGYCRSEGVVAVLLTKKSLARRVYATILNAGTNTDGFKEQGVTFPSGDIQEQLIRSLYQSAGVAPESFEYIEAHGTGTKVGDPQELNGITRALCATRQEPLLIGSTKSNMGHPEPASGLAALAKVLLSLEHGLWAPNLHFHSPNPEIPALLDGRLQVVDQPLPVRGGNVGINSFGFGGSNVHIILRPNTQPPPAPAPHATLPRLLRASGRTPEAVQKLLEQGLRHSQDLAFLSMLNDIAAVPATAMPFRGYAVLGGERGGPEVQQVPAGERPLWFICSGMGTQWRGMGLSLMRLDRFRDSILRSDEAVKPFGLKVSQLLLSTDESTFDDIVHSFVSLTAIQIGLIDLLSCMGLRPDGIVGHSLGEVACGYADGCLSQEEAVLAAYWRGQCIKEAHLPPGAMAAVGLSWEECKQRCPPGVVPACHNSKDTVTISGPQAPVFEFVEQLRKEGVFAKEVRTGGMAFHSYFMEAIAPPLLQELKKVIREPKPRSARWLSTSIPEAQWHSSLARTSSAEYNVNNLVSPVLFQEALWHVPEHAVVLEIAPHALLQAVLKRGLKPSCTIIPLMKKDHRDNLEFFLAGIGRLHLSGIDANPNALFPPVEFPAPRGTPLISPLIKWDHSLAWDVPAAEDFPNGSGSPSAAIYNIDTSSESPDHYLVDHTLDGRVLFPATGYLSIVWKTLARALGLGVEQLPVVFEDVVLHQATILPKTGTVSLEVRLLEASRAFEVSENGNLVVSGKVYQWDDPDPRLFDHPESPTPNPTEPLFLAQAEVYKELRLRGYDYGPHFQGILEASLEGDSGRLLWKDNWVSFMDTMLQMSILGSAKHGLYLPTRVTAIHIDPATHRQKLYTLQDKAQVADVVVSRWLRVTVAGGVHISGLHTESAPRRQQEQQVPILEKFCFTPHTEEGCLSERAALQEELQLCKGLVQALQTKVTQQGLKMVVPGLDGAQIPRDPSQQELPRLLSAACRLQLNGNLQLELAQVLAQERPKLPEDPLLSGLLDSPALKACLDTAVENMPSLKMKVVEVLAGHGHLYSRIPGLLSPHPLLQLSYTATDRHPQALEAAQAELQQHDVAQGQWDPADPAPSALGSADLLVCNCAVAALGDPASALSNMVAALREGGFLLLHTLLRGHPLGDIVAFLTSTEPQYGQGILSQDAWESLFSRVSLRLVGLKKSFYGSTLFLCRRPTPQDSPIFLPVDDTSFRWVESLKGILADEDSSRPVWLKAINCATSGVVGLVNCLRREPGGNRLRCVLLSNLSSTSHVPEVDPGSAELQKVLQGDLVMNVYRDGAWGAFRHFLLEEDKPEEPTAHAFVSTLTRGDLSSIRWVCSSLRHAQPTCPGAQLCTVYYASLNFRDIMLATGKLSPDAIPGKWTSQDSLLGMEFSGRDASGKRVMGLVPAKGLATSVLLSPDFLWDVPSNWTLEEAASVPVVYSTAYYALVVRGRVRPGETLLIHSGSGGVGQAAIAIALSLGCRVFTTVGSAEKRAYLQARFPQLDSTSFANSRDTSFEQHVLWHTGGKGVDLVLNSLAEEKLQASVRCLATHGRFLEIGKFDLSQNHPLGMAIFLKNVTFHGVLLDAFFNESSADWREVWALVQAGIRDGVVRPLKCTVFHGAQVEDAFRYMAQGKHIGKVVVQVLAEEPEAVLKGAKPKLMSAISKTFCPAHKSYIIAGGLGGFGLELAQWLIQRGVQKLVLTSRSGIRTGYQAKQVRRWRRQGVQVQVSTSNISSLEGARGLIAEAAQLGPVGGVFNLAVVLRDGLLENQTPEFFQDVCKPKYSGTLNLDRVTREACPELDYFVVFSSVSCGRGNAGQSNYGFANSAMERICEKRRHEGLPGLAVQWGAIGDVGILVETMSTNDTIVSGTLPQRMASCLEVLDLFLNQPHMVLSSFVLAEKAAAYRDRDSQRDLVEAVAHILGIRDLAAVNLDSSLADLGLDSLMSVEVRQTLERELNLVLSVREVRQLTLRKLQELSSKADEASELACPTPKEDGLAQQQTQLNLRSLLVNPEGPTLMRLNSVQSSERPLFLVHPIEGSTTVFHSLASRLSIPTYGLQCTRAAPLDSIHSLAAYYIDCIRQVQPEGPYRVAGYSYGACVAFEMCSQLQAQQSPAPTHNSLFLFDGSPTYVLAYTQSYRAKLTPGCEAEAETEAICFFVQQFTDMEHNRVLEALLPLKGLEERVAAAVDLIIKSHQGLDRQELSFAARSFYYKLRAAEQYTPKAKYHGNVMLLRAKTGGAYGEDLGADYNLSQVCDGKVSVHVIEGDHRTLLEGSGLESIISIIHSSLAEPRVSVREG
# Nonstructural protein 1, sequence (Q194T2 whole entry): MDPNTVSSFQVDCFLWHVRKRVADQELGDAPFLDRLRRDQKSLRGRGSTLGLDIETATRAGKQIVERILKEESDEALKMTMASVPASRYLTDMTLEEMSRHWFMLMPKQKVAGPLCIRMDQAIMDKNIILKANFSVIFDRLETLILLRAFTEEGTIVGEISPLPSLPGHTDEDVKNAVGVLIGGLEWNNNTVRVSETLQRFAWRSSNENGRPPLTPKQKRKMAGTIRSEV
# Estrogen receptor beta, sequence (Q92731 whole entry): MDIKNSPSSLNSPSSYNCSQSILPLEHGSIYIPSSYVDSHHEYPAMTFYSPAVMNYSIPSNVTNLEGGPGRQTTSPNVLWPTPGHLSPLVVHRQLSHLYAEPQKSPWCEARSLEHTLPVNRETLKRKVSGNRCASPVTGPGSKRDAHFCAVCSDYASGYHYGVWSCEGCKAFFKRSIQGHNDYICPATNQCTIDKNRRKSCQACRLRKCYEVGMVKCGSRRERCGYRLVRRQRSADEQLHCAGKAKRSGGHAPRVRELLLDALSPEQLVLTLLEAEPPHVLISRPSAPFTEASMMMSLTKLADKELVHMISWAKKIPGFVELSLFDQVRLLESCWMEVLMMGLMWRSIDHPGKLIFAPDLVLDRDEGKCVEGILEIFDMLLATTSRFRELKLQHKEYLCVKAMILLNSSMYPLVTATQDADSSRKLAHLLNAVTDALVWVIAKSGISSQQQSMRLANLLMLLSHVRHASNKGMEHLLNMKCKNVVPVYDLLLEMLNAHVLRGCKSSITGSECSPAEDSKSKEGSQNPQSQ
smiles,measurement,setting,value
CN1CCN(Cc2c(C(=O)N/N=C/c3cccc(Br)c3)nnn2-c2nonc2N)CC1,AC50,CAAX prenyl protease 2,2.08 µM (active)
same,CC50,Vero,10.1 µM (active)
CCOC(=O)c1c(C(C)(C)C)oc2ccc(O)cc12,IC50,[1],4.47 µM (active)
same,IC50,[2],> 20 µM (inactive)
CC(C)(CNC(=O)c1ccc([N+](=O)[O-])c(Cl)c1)CNC(=O)c1ccc([N+](=O)[O-])c(Cl)c1,IC50,[3],> 64.6 µM (inactive)
same,IC50,[1],3.11 µM (active)
same,IC50,Fatty acid synthase [4],5.44 µM (active)
same,IC50,Melanocortin receptor 4,> 64.6 µM (inactive)
same,IC50,Fatty acid synthase [5],6.06 µM (active)
CCOC(=O)c1sc(NC(=O)c2ccc3ncsc3c2)nc1C,IC50,[6],> 39.8 µM (not active)
CN(C)c1cc(O)c(C(S)=Nc2ccccc2)c(N(C)C)c1,AC50,CAAX prenyl protease 2,52.2 µM (active)
CCCc1cc(O)nc(SCC(=O)Nc2ccc(C(=O)OC)cc2)n1,IC50,Estrogen receptor beta,> 50 µM (not active)
O=C(NC(=S)Nc1ccccc1N1CCOCC1)c1ccc(Br)cc1,IC50,[1],1.08 µM (active)
C[C@H](CO)N1C[C@H](C)[C@@H](CN(C)Cc2ccc3c(c2)OCO3)Oc2ccc(NC(=O)Nc3ccc(C(F)(F)F)cc3)cc2CC1=O,AC50,[7],0.954 µM (active)
same,AC50,[8],> 39 µM (inactive)
same,AC50,[9],0.852 µM (active)
same,AC50,[10],1.14 µM (active)
same,AC50,[11],0.94 µM (active)
Cn1cnnc1SCc1ccc(C(=O)N=Nc2c(O)n(Cc3ccc(Cl)cc3)c3ccccc23)cc1,CC50,[12],21.2 µM (active)
same,EC50,Streptococcus,> 150 µM (not active)
same,CC50,[13],16.5 µM (active)
same,EC50,[14],3.12 µM (active)
same,EC50,Streptokinase A,18 µM (inconclusive)
COc1ccc(C2c3[nH]c4ccccc4c3CCN2Cc2cccn2-c2ncccn2)cc1C (stereo unspecified),CC50,[12],> 40 µM (active)
same,EC50,[15],1.28 µM (active)
same,EC50,[16],> 60 µM (inconclusive)
Cc1ccc(C(=O)N/N=C/c2cc(Br)ccc2O)cn1,EC50,Streptococcus,5.99 µM (active)
same,IC50,Nonstructural protein 1,12.3 µM (active)
same,IC50,[6],5.56 µM (active)
same,EC50,cells [17],> 350 µM (not active)
same,EC50,[14],3.17 µM (active)
same,EC50,cells [18],16.1 µM (active)
O=C(Nc1ncc(Cc2ccccc2)s1)C1COc2ccccc2O1 (stereo unspecified),EC50,[19],0.179 µM (active)
same,EC50,[20],11.4 µM (active)
same,EC50,[21],0.465 µM (active)
same,EC50,[22],< 0.1 µM (active)
CCC1(c2ccccc2)ON(c2c(Br)cccc2Br)C1=O (stereo unspecified),CC50,[12],21.4 µM (active)
same,CC50,Vero,> 25 µM (active)
c1ccc(-c2nnc(-c3ccccn3)nn2)nc1,EC50,[23],> 300 µM (not active)
same,CC50,[12],34.2 µM (active)
same,IC50,Nonstructural protein 1,12.6 µM (active)
same,EC50,[24],49.8 µM (inconclusive)
C/C(=N\OC(=O)c1ccc(F)cc1)c1sc(-c2ccc(Cl)cc2)nc1C,EC50,[19],0.301 µM (active)
same,EC50,[20],0.37 µM (active)
same,EC50,H4,< 0.1 µM (active)
same,EC50,[21],0.236 µM (active)
same,EC50,[25],< 0.1 µM (active)
same,EC50,[22],0.122 µM (active)
C[C@@H]1CN([C@@H](C)CO)C(=O)Cc2cc(NC(=O)Nc3ccc(C(F)(F)F)cc3)ccc2O[C@H]1CN(C)CC1CCCCC1,AC50,[8],10.4 µM (active)
same,AC50,[10],1.35 µM (active)
N#CC1=C2N=C(N)c3ccccc3N2C2=C(C(=O)CCC2)C1c1cccc(Cl)c1 (stereo unspecified),IC50,[1],8.48 µM (active)
O=C(Nc1ccccc1-c1nc2ccccc2[nH]1)c1ccc(N2C(=O)CCC2=O)cc1,IC50,[3],> 64.6 µM (inactive)
same,IC50,Melanocortin receptor 4,> 21.5 µM (inactive)
same,AC50,CAAX prenyl protease 2,75.6 µM (active)
COc1ccc2c3c([nH]c2c1)[C@H](CO)N(Cc1ccncc1)CC31CCN(Cc2ccc(-c3ccccn3)cc2)CC1,AC50,[8],17.6 µM (active)
same,AC50,[10],0.973 µM (active)

# Source: ChEMBL document CHEMBL1201862, “PubChem BioAssay data set” (2004)
